According to patent US10420737B2, “Hepatotoxicity-free pharmaceutical composition containing acetaminophen drugs” (NATIONAL DEFENSE EDUCATION AND RESEARCH FOUNDATION, priority 2013, dated 2019):
“And” between values parts separate entries of the source, which are not always exact repeats. Equal values may be shown once. “Also recorded” adds a separate entry of the source. Values belong to the molecule of their own block, whether it stands above or below them.

Key:
[1] = target: Cytochrome P450 2E1 (CYP2E1) (Rattus norvegicus, UniProt P05182); assay: In-vitro screening of CYP2E1 inhibitors in rat liver microsomes (chlorzoxazone 6-hydroxylation)
From the text: (§1) This example is preparation of microsomes from rat and human liver for in vitro screening of CYP2E1 inhibitors. A total of 55 safe and edible excipients are included in the screening for cytochrome P450 2E1 (CYP2E1) inhibitors. […] After addition of the test sample, the amount of CYP2E1 metabolite standard 6-OH—CZX (6-Hydroxy-Chlorzoxazone) is used for calculation of the CYP 2E1 inhibition ratio of the test sample by using the amount of 6-OH—CZX of the control group as the baseline.
(§2) Transfer to and pre-incubate the reaction mixture in a water bath at 37° C. for 1 minute. […] Incubate the sample for 1 minute and add internal standard (5 ug/mL 4-hydroxy-tobutamide).

[2] = test system: Male SD (Sprague-Dawley) rats; assay: APAP-induced hepatotoxicity in rats: galactose single point (GSP) residual liver function test; assay type: in vivo, rat; settings: excipient 1.67 mg/kg + APAP 1000 mg/kg, single oral dose
Experimental: After the study was completed, all rats were subjected to GSP test. Rats were i.v. injected with 0.4 g/ml BW galactose solution 0.5 g/kg within 30 seconds and one blood sample was collected at 5, 10, 15, 30, 45 and 60 minutes post injection from the tail vein. Colorimetric galactose dehydrogenase is used to quantify the concentration of galactose and the test concentration ranges from 50 to 1,000 μg/ml. The within-day variation of each concentration is calculated using standard deviation and coefficient of variation (CV) and the maximum allowable coefficient of variation is 10% CV, whereas day-to-day variation is examined by comparing the slope and intercept of calibration curves. The GSP is the blood galactose concentration obtained 60 seconds after stopping the 30-second injection.

[3] = test system: Male SD (Sprague-Dawley) rats; assay: APAP-induced hepatotoxicity in rats: histological liver tissue sections (Total HAI-score); settings: for liver tissue sections, hepatocyte morphology (in words): liver protection groups + APAP 1000 mg/kg, H&E stain 200×, FIG. 2
[4] = test system: Male SD (Sprague-Dawley) rats; assay: APAP-induced hepatotoxicity in rats: plasma AST and ALT activity; assay type: in vivo, rat; settings: for improvement of APAP liver damage (AST, ALT, GSP and Total HAI-score, in words): combined with APAP 1000 mg/kg, versus APAP hepatotoxicity group
Experimental: After completion of the treatments, rats were sacrificed under ether anesthesia, and blood was collected from the tail artery of the rats and placed in a test tube containing EDTA. The plasma was centrifuged at 13,000 at 4° C. for 15 minutes and the isolated plasma was transferred to Eppendorf tubes in aliquots and stored at −80° C.
Liver damage is quantified by measuring plasma AST and ALT activity. AST and ALT are common indicators of hepatotoxicity and are measured by using the Synchron LXi 725 system (Beckman Instruments, U.S.).

[5] = target: Cytochrome P450 2E1 (CYP2E1) (Homo sapiens, UniProt P05181); assay: In-vitro screening of CYP2E1 inhibitors in human liver microsomes (chlorzoxazone 6-hydroxylation)
From the text: as §1, §2

[6] = rat liver microsomes, test concentration 16.5 μM
[7] = rat liver microsomes, test concentration 33 μM
[8] = rat liver microsomes, test concentration 66 μM
[9] = excipient 1.67 mg/kg + APAP 1000 mg/kg, single oral dose
[10] = rat, microsomes, 30 min, 16.5 μM, pH 7.4
[11] = rat, microsomes, 30 min, 33 μM, pH 7.4
[12] = rat, microsomes, 30 min, 66 μM, pH 7.4
[13] = human, microsomes, 30 min, 16.5 μM, pH 7.4
[14] = human, microsomes, 30 min, 33 μM, pH 7.4
[15] = human, microsomes, 30 min, 66 μM, pH 7.4
[16] = human liver microsomes, test concentration 16.5 μM
[17] = human liver microsomes, test concentration 33 μM
[18] = human liver microsomes, test concentration 66 μM
[19] = APAP alone, single oral dose 1000 mg/kg, plasma, mean ± SD, 1000 mg/kg
[20] = rat, microsomes, 30 min, 0.024 %, pH 7.4
[21] = rat, microsomes, 30 min, 0.084 % (w/v), pH 7.4
[22] = rat, microsomes, 30 min, 0.167 % (w/v), pH 7.4

Sequence of Cytochrome P450 2E1 (CYP2E1) (Rattus norvegicus, UniProt P05182) (P05182 whole entry): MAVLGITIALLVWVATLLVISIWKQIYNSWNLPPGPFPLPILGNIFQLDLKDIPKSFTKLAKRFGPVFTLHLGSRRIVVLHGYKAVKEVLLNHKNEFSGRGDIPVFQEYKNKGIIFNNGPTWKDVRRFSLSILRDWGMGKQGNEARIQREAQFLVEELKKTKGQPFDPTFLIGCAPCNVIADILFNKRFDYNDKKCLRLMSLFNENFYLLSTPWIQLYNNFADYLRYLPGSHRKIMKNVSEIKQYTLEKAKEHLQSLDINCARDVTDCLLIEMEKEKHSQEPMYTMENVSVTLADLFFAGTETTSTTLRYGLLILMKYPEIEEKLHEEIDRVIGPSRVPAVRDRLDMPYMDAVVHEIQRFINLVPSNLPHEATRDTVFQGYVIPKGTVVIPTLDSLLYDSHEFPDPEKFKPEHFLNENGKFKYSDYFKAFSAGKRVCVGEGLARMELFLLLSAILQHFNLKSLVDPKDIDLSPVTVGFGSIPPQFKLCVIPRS
Sequence of Cytochrome P450 2E1 (CYP2E1) (Homo sapiens, UniProt P05181) (P05181 whole entry): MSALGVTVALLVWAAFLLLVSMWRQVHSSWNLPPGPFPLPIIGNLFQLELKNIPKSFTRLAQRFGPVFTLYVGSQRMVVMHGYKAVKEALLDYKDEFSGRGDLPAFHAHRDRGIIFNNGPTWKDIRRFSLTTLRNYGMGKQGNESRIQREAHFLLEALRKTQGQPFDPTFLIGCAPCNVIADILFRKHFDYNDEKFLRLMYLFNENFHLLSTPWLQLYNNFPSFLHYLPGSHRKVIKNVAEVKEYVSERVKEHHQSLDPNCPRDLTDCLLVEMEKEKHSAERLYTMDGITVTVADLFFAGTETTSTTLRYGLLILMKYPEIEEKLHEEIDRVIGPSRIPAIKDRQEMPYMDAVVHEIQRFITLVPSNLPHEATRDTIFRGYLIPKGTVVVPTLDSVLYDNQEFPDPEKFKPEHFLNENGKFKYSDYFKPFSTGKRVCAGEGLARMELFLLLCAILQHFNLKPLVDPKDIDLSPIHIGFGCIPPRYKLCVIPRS

- CYP 2E1 inhibition ratio [1, 10]: 4.6 ± 3.2%
- CYP 2E1 inhibition ratio [1, 11]: −14.6 ± 4.1%
- CYP 2E1 inhibition ratio [1, 12]: −21.5 ± 2.0%
Molecule: COC(=O)c1ccc(O)cc1 [Methylparaben]

- CYP 2E1 inhibition ratio [1, 6]: 35.3 ± 2.0%
- CYP 2E1 inhibition ratio [1, 7]: 59.6 ± 3.3%
- CYP 2E1 inhibition ratio [1, 8]: 67.4 ± 3.9%
- CYP 2E1 inhibition ratio [5, 16]: 29.4 ± 2.7%
- CYP 2E1 inhibition ratio [5, 17]: 51.2 ± 0.9%
- CYP 2E1 inhibition ratio [5, 18]: 78.5 ± 2.1%
Molecule: O=C1NS(=O)(=O)c2ccccc21 [Saccharin]

- CYP 2E1 inhibition ratio [1, 6]: 7.2 ± 2.9%
- CYP 2E1 inhibition ratio [1, 7]: 15.3 ± 7.9%
- CYP 2E1 inhibition ratio [1, 8]: 36.4 ± 0.3%
- CYP 2E1 inhibition ratio [5, 16]: 10.5 ± 0.4%
- CYP 2E1 inhibition ratio [5, 17]: 20.8 ± 2.1%
- CYP 2E1 inhibition ratio [5, 18]: 30.8 ± 0.3%
Molecule: CC1CCC(C(C)C)C(O)C1 (stereo not drawn) [Menthol]
- GSP [2]: 289 ± 20 mg/L
- Total HAI-score [3, 9]: 11 ± 1.2
- liver tissue sections, hepatocyte morphology (in words) ([3]; single oral dose): more intact around the central vein and have a apparent nucleus with less vacuolization; also recorded: hepatocytes are relatively intact with visible nucleus and less vacuolization
- improvement of APAP liver damage (AST, ALT, GSP and Total HAI-score, in words) [4]: significant decrease
- ALT [4, 9]: 109 ± 23 IU/L
- AST [4, 9]: 187 ± 21 IU/L

- CYP 2E1 inhibition ratio [1, 20]: 6.4 ± 0.5%
- CYP 2E1 inhibition ratio [1, 21]: 5.6 ± 0.5%
- CYP 2E1 inhibition ratio [1, 22]: 16.1 ± 0.7%
Molecule: OC[C@@H](O)[C@@H](O)[C@H](O)[C@@H](O)CO [Sorbitol]

- CYP 2E1 inhibition ratio [1, 6]: 12.1 ± 5.7%
- CYP 2E1 inhibition ratio [1, 7]: 13.2 ± 4.4%
- CYP 2E1 inhibition ratio [1, 8]: 19.0 ± 5.6%
- CYP 2E1 inhibition ratio [5, 16]: 8.4 ± 1.6%
- CYP 2E1 inhibition ratio [5, 17]: 10.9 ± 2.7%
- CYP 2E1 inhibition ratio [5, 18]: 14.8 ± 0.1%
Molecule: C/C=C/C=C/C(=O)O [Sorbic acid]

- CYP 2E1 inhibition ratio [1, 10]: −4.1 ± 1.2%
- CYP 2E1 inhibition ratio [1, 11]: −17.2 ± 2.4%
- CYP 2E1 inhibition ratio [1, 12]: −27.3 ± 3.7%
Molecule: CCCOC(=O)c1ccc(O)cc1 [Propylparaben]

- CYP 2E1 inhibition ratio [1, 10]: 41.1 ± 2.7%
- CYP 2E1 inhibition ratio [1, 11]: 46.8 ± 0.8%
- CYP 2E1 inhibition ratio [1, 12]: 54.0 ± 4.2%
- CYP 2E1 inhibition ratio [5, 13]: 37.1 ± 2.8%
- CYP 2E1 inhibition ratio [5, 14]: 45.8 ± 4.0%
- CYP 2E1 inhibition ratio [5, 15]: 55.8 ± 2.0%
Molecule: OC[C@H]1O[C@H](O[C@]2(CCl)O[C@H](CCl)[C@@H](O)[C@@H]2O)[C@H](O)[C@@H](O)[C@H]1Cl [Sucralose]
- GSP [2]: 218 ± 31 mg/L
- Total HAI-score [3, 9]: 0.6 ± 0.4
- liver tissue sections, hepatocyte morphology (in words) ([3]; single oral dose): most similar to the liver tissue sections of normal rats; also recorded: hepatocytes are relatively intact with visible nucleus and less vacuolization
- improvement of APAP liver damage (AST, ALT, GSP and Total HAI-score, in words) [4]: significant decrease
- ALT [4, 9]: 83 ± 23 IU/L
- AST [4, 9]: 199 ± 24 IU/L

More lines, now with the values behind:

Molecule: CC1=CC(=O)NS(=O)(=O)O1 [Acesulfame potassium]
- CYP 2E1 inhibition ratio [1, 6]: 3.9 ± 2.7%
- CYP 2E1 inhibition ratio [1, 7]: 7.1 ± 2.3%
- CYP 2E1 inhibition ratio [1, 8]: 14.5 ± 1.9%

Molecule: OC[C@@H](O)[C@@H](O)[C@H](O)[C@H](O)CO [Mannitol]
- GSP [2]: 253 ± 29 mg/L
- Total HAI-score [3, 9]: 0.8 ± 0.3
- liver tissue sections, hepatocyte morphology (in words) ([3]; single oral dose): more intact around the central vein and have a apparent nucleus with less vacuolization; also recorded: hepatocytes are relatively intact with visible nucleus and less vacuolization
- CYP 2E1 inhibition ratio [1, 10]: 40.9 ± 2.8%
- CYP 2E1 inhibition ratio [1, 11]: 51.0 ± 2.7%
- CYP 2E1 inhibition ratio [1, 12]: 60.6 ± 3.3%
- improvement of APAP liver damage (AST, ALT, GSP and Total HAI-score, in words) [4]: significant decrease
- ALT [4, 9]: 79 ± 34 IU/L
- AST [4, 9]: 201 ± 30 IU/L
- CYP 2E1 inhibition ratio [5, 13]: 44.8 ± 1.8%
- CYP 2E1 inhibition ratio [5, 14]: 51.2 ± 2.1%
- CYP 2E1 inhibition ratio [5, 15]: 54.5 ± 4.2%

Molecule: O=C(O)CC(O)(CC(=O)O)C(=O)O [Citric acid]
- CYP 2E1 inhibition ratio [1, 6]: 7.5 ± 2.3%
- CYP 2E1 inhibition ratio [1, 7]: 12.4 ± 2.2%
- CYP 2E1 inhibition ratio [1, 8]: 27.6 ± 3.6%
- CYP 2E1 inhibition ratio [5, 16]: 9.9 ± 3.1%
- CYP 2E1 inhibition ratio [5, 17]: 15.5 ± 1.5%
- CYP 2E1 inhibition ratio [5, 18]: 20.5 ± 1.8%

Molecule: CCCCCCCCCCCCOS(=O)(=O)[O-].[Na+] [Sodium lauryl sulfate]
- CYP 2E1 inhibition ratio [1, 6]: 4.6 ± 1.1%
- CYP 2E1 inhibition ratio [1, 7]: 6.4 ± 0.9%
- CYP 2E1 inhibition ratio [1, 8]: 4.8 ± 1.2%

Molecule: O.O.O=P([O-])([O-])O.[Ca+2] [Dicalcium phosphate dihydrate]
- GSP ([2]; phosphate dihydrate): 444 ± 60 mg/L
- Total HAI-score [3, 9]: 3.1 ± 1.1
- liver tissue sections, hepatocyte morphology (in words) ([3]; single oral dose): except for the dicalcium phosphate group
- CYP 2E1 inhibition ratio [1, 6]: 55.0 ± 4.6%
- CYP 2E1 inhibition ratio [1, 7]: 62.0 ± 2.6%
- CYP 2E1 inhibition ratio [1, 8]: 76.7 ± 0.8%
- improvement of APAP liver damage (AST, ALT, GSP and Total HAI-score, in words) [4]: not as expected
- ALT [4, 9]: 196 ± 65 IU/L
- AST [4, 9]: 315 ± 42 IU/L
- CYP 2E1 inhibition ratio [5, 16]: 31.2 ± 2.9%
- CYP 2E1 inhibition ratio [5, 17]: 56.8 ± 2.2%
- CYP 2E1 inhibition ratio [5, 18]: 60.1 ± 0.3%

Molecule: CCCCCCCCCCCCCCCCCCCCCC(=O)OCC(O)CO (stereo not drawn) [Glyceryl behenate]
- CYP 2E1 inhibition ratio [1, 10]: 3.1 ± 0.2%
- CYP 2E1 inhibition ratio [1, 11]: 3.1 ± 2.5%
- CYP 2E1 inhibition ratio [1, 12]: 8.2 ± 2.0%

Molecule: CC(=O)Nc1ccc(O)cc1 [APAP, N-acetyl-para-aminophenol, reference compound]
- Total HAI-score ([3]; APAP alone, single oral dose 1000 mg/kg, mean ± SD): 4.9 ± 1.8
- ALT [4, 19]: 368±71 IU/L
- AST [4, 19]: 499±112 IU/L

Molecule: OCc1ccccc1 [Benzyl alcohol]
- CYP 2E1 inhibition ratio [1, 20]: 8.2 ± 2.0%
- CYP 2E1 inhibition ratio [1, 21]: 6.7 ± 1.0%
- CYP 2E1 inhibition ratio [1, 22]: −10.3 ± 6.3%

Molecule: Magnesium stearate
- CYP 2E1 inhibition ratio [1, 6]: 2.0 ± 1.0%
- CYP 2E1 inhibition ratio [1, 7]: 3.0 ± 0.7%
- CYP 2E1 inhibition ratio [1, 8]: 5.0 ± 1.6%

Molecule: O.OC[C@H]1O[C@@H](O[C@H]2[C@H](O)[C@@H](O)C(O)O[C@@H]2CO)[C@H](O)[C@@H](O)[C@H]1O (stereo partly drawn) [Lactose monohydrate]
- CYP 2E1 inhibition ratio [1, 10]: 3.9 ± 2.3%
- CYP 2E1 inhibition ratio [1, 11]: 7.8 ± 2.2%
- CYP 2E1 inhibition ratio [1, 12]: 8.7 ± 3.8%

Molecule: CCN(CC)C(=S)S [DDTC, Diethyldithiocarbamic acid, reference compound]
- CYP 2E1 inhibition ratio ([1]; rat liver microsomes, test concentration 10 μM): 8.6 ± 1.1%
- CYP 2E1 inhibition ratio ([1]; rat liver microsomes, test concentration 50 μM): 50.4 ± 1.1%
- CYP 2E1 inhibition ratio ([1]; rat liver microsomes, test concentration 100 μM): 89.2% and 89.2 ± 2.2%
- CYP 2E1 inhibition ratio ([5]; human, microsomes, 30 min, 10 μM, pH 7.4): 7.3 ± 1.0%
- CYP 2E1 inhibition ratio ([5]; human, microsomes, 30 min, 50 μM, pH 7.4): 49.8 ± 2.9%
- CYP 2E1 inhibition ratio ([5]; human, microsomes, 30 min, 100 μM, pH 7.4): 89.6 ± 0.9%

Molecule: O=C([O-])c1ccccc1.[Na+] [Sodium benzoate]
- CYP 2E1 inhibition ratio [1, 6]: 7.1 ± 2.0%
- CYP 2E1 inhibition ratio [1, 7]: 7.8 ± 4.1%
- CYP 2E1 inhibition ratio [1, 8]: 15.8 ± 0.9%
